# In ChEMBL document CHEMBL3885881, “DrugMatrix”:
# Species on record: Rattus norvegicus
# Assay: DrugMatrix - Regimen: Daily Repeat
# Assay type: toxicity, organism-based, Sprague-Dawley
# Design: regimen Daily Repeat, gender Male, age 6-8 weeks
# Conditions: in vivo, po, route oral GAVAGE, […]; for ALKALINE PHOSPHATASE / ASPARTATE AMINOTRANSFERASE / BLOOD UREA NITROGEN / CARBON DIOXIDE / CHLORIDE / CHOLESTEROL / CREATINE PHOSPHOKINASE / CREATININE / GLUCOSE / LACTATE DEHYDROGENASE / LIPASE / PHOSPHORUS / POTASSIUM / SODIUM / TOTAL BILIRUBIN / TOTAL PROTEIN / URIC ACID / ALANINE AMINOTRANSFERASE / ALBUMIN: tissue Plasma
# [1] = 0 mg/kg, 72 h, dose level Control, time 3 day
# [2] = 0 mg/kg, 120 h, tissue Blood, dose level Control, time 5 day
# [3] = 0 mg/kg, tissue Blood, dose level Control, time 14 day
# [4] = 0 mg/kg, dose level Control, time 14 day
# [5] = 1200 mg/kg, 72 h, tissue Blood, dose level High, time 3 day
# [6] = 1200 mg/kg, tissue Blood, dose level High, time 14 day
# [7] = 1200 mg/kg, dose level High, time 14 day
structure (smiles),measurement,setting,value
CC[C@H](C)C(=O)O[C@H]1C[C@H](O)C=C2C=C[C@H](C)[C@H](CC[C@@H](O)C[C@@H](O)CC(=O)O)[C@H]21 [PRAVASTATIN],ALKALINE PHOSPHATASE,[1],374.17 u/L
same,ASPARTATE AMINOTRANSFERASE,[1],83.5 u/L
same,BLOOD UREA NITROGEN,[1],14.5 mg/dL
same,CARBON DIOXIDE,[1],30 mmol/L
same,CHLORIDE,[1],100.5 MEQ/L
same,CHOLESTEROL,[1],71.33 mg/dL
same,CREATINE PHOSPHOKINASE,[1],268.33 u/L
same,CREATININE,[1],0.16 mg/dL
same,GLUCOSE,[1],170.5 mg/dL
same,LACTATE DEHYDROGENASE,[1],81.17 u/L
same,LIPASE,[1],16.67 u/L
same,PHOSPHORUS,[1],10.07 mg/dL
same,POTASSIUM,[1],5.03 MEQ/L
same,SODIUM,[1],142.92 MEQ/L
same,TOTAL BILIRUBIN,[1],0.17 mg/dL
same,TOTAL PROTEIN,[1],5.63 G/DL
same,URIC ACID,[1],0.5 mg/dL
same,ABSOLUTE SEGMENTED NEUTROPHIL,[2],646.83 CELLS/uL
same,NUCLEATED RED BLOOD CELLS,[2],0.17 /100WBC
same,ABSOLUTE BASOPHIL,[3],100 cells/µL
same,ABSOLUTE EOSINOPHIL,[3],57.5 cells/µL
same,ABSOLUTE LYMPHOCYTE,[3],11800 cells/µL
same,ABSOLUTE MONOCYTE,[3],290 cells/µL
same,BASOPHIL,[3],0.47%
same,EOSINOPHIL,[3],0.41%
same,ERYTHROCYTE COUNT,[3],7.31 x10E6/uL
same,HEMATOCRIT,[3],46.8%
same,HEMOGLOBIN,[3],14.69 G/DL
same,LEUKOCYTE COUNT,[3],14.73 x10E3/uL
same,LYMPHOCYTE,[3],80.94%
same,MEAN CORPUSCULAR HEMOGLOBIN,[3],20.09 pg
same,MEAN CORPUSCULAR HEMOGLOBIN CONCENTRATION,[3],31.41 G/DL
same,MEAN CORPUSCULAR VOLUME,[3],64.03 fL
same,MONOCYTE,[3],1.9%
same,NEUTROPHIL,[3],15.1%
same,PLATELET COUNT,[3],1273.62 x10E3/uL
same,ALANINE AMINOTRANSFERASE,[4],56.75 u/L
same,ALBUMIN,[4],3.84 G/DL
same,ALKALINE PHOSPHATASE,[4],530.25 u/L
same,ASPARTATE AMINOTRANSFERASE,[4],78.88 u/L
same,BLOOD UREA NITROGEN,[4],12.25 mg/dL
same,CARBON DIOXIDE,[4],41.38 mmol/L
same,CHLORIDE,[4],102.38 MEQ/L
same,CHOLESTEROL,[4],67.88 mg/dL
same,CREATINE PHOSPHOKINASE,[4],297.25 u/L
same,CREATININE,[4],0.61 mg/dL
same,GLUCOSE,[4],161.88 mg/dL
same,LACTATE DEHYDROGENASE,[4],161.38 u/L
same,LIPASE,[4],16.75 u/L
same,PHOSPHORUS,[4],10.13 mg/dL
same,POTASSIUM,[4],6.73 MEQ/L
same,SODIUM,[4],149 MEQ/L
same,TOTAL BILIRUBIN,[4],0.29 mg/dL
same,TOTAL PROTEIN,[4],6.73 G/DL
same,URIC ACID,[4],1.14 mg/dL
same,ABSOLUTE BASOPHIL,[5],0 CELLS/uL
same,BASOPHIL,[5],0%
same,NUCLEATED RED BLOOD CELLS,"1200 mg/kg, 120 h, tissue Blood, dose level High, time 5 day",0 /100WBC
same,ABSOLUTE BASOPHIL,[6],66.7 cells/µL
same,ABSOLUTE EOSINOPHIL,[6],80 cells/µL
same,ABSOLUTE LYMPHOCYTE,[6],4950 cells/µL
same,ABSOLUTE MONOCYTE,[6],1.18 CELLS/uL
same,BASOPHIL,[6],0.33%
same,EOSINOPHIL,[6],0.5%
same,ERYTHROCYTE COUNT,[6],8.11 x10E6/uL
same,HEMATOCRIT,[6],47.4%
same,HEMOGLOBIN,[6],15.87 G/DL
same,LEUKOCYTE COUNT,[6],17.97 x10E3/uL
same,LYMPHOCYTE,[6],29.8%
same,MEAN CORPUSCULAR HEMOGLOBIN,[6],19.53 pg
same,MEAN CORPUSCULAR HEMOGLOBIN CONCENTRATION,[6],33.43 G/DL
same,MEAN CORPUSCULAR VOLUME,[6],58.47 fL
same,MONOCYTE,[6],6.57%
same,NEUTROPHIL,[6],58.53%
same,PLATELET COUNT,[6],1135 x10E3/uL
same,ALANINE AMINOTRANSFERASE,[7],669.33 u/L
same,ALBUMIN,[7],3.17 G/DL
same,ALKALINE PHOSPHATASE,[7],461 u/L
same,ASPARTATE AMINOTRANSFERASE,[7],5256.67 u/L
same,BLOOD UREA NITROGEN,[7],60.67 mg/dL
same,CARBON DIOXIDE,[7],33.33 mmol/L
same,CHLORIDE,[7],95.67 MEQ/L
same,CHOLESTEROL,[7],47 mg/dL
same,CREATINE PHOSPHOKINASE,[7],10626.67 u/L
same,CREATININE,[7],0.97 mg/dL
same,GLUCOSE,[7],113.67 mg/dL
same,LACTATE DEHYDROGENASE,[7],1229.67 u/L
same,LIPASE,[7],228.5 u/L
same,PHOSPHORUS,[7],11.03 mg/dL
same,POTASSIUM,[7],6.93 MEQ/L
same,SODIUM,[7],141 MEQ/L
same,TOTAL BILIRUBIN,[7],0.3 mg/dL
same,TOTAL PROTEIN,[7],5.53 G/DL
same,URIC ACID,[7],1.53 mg/dL
